# Earlier results as cited in patent US7767688B2, “Combination of pyrimidylaminobenzamide compounds and imatinib for treating gastrointestinal stromal tumours” (Novartis AG, priority 2005, dated 2010).
# Target: PDGFRA V561D juxtamembrane domain mutation (Homo sapiens, UniProt P16234, V561D)
# Details: V561D compared with D842V kinase domain mutation
# Chain of PDGFRA V561D juxtamembrane domain mutation (P16234 24-1089 V561D): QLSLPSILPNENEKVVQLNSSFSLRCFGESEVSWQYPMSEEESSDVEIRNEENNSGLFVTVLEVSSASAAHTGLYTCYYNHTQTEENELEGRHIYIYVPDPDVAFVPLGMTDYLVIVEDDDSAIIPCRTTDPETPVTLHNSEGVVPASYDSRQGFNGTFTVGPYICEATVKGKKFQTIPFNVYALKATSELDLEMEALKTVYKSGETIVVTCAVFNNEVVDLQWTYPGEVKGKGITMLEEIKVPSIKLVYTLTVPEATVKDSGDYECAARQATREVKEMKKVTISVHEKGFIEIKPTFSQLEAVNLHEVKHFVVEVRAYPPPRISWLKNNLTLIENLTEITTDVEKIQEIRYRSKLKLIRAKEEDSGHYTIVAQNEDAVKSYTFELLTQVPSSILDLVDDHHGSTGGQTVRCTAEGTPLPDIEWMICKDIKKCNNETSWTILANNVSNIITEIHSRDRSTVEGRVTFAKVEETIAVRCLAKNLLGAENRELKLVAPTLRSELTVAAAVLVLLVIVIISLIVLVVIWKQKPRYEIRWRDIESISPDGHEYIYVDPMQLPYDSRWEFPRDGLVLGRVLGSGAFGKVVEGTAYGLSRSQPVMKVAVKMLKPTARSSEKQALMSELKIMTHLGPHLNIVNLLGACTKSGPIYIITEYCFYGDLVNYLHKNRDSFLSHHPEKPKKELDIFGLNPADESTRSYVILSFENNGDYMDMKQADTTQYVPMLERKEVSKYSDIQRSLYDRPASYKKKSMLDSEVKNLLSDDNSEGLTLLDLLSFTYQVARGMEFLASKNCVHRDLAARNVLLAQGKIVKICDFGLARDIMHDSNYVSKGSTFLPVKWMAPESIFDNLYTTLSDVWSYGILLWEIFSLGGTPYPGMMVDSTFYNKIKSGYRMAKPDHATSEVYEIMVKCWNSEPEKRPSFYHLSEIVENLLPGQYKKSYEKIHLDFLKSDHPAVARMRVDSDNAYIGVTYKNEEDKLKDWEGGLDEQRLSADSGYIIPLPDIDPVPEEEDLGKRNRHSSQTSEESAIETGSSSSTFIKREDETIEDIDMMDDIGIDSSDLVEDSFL
smiles,measurement,value
Cc1ccc(NC(=O)c2ccc(CN3CCN(C)CC3)cc2)cc1Nc1nccc(-c2cccnc2)n1 [imatinib],Sensitivity to imatinib by location of PDGFRA mutation,more sensitive to imatinib than the D842V kinase domain mutation
